This note sets out measurements from patent publication US7884127B2, “Inhibitors of cyclin dependent kinases and their use” (Pirimal Life Sciences Ltd., priority 2002, dated 2011).

In turn, `COc1cc(OC)c2c(=O)cc(-c3ccccc3Cl)oc2c1[C@@H]1CCN(C)[C@H]1C(=O)O` (racemic) [Example 143, (±)-trans-3-[2-(2-Chloro-phenyl)-5,7-dimethoxy-4-oxo-4H-chromen-8-yl]-1-methyl-pyrrolidine-2-carboxylic acid] displayed a melting point of 165 to 167 °C.
As for `CN1CC[C@@H](c2c(O)cc(O)c3c(=O)cc(-c4cccc(F)c4)oc23)[C@@H]1CO` [Example 76, (+)-trans-2-(3-Fluoro-phenyl)-5,7-dihydroxy-8-(2-hydroxymethyl-1-methyl-pyrrolidin-3-yl)-chromen-4-one], the melting point is 218 to 220 °C.
Compound `CN1CC[C@@H](c2c(O)cc(O)c3c(=O)cc(-c4ccc([N+](=O)[O-])cc4)oc23)[C@@H]1CO` [Example 92, (+)-trans-5,7-Dihydroxy-8-(2-hydroxymethyl-1-methyl-pyrrolidin-3-yl)-2-(4-nitro-phenyl)-chromen-4-one] had a melting point of 275 to 277 °C.
With `CN1CC[C@@H](c2c(O)cc(O)c3c(=O)cc(-c4ccccc4Cl)oc23)[C@@H]1CC#N` (racemic) [Example 111, (±)-trans-{3-[2-(2-Chloro-phenyl)-5,7-dihydroxy-4-oxo-4H-chromen-8-yl]-1-methyl-pyrrolidin-2-yl}-acetonitrile] the figure was 107 to 108 °C.
`CN1CC[C@@H](c2c(O)cc(O)c3c(=O)cc(-c4cccc(F)c4Br)oc23)[C@@H]1CO` [Example 136, (+)-trans-2-(2-Bromo-3-fluoro-phenyl)-5,7-dihydroxy-8-(2-hydroxymethyl-1-methyl-pyrrolidin-3-yl)-chromen-4-one] gave a melting point of 237 to 239 °C.
`CN1CC[C@@H](c2c(O)cc(O)c3c(=O)cc(-c4cc(Cl)ccc4Br)oc23)[C@@H]1CO` [Example 140, (+)-trans-2-(2-Bromo-5-chloro-phenyl)-5,7-dihydroxy-8-(2-hydroxymethyl-1-methyl-pyrrolidin-3-yl)-chromen-4-one] returned a melting point of 233 to 235 °C.
With `CN1CC[C@@H](c2c(O)cc(O)c3c(=O)cc(-c4ccc(C#N)cc4Cl)oc23)[C@@H]1CO` [Example 98, (+)-trans-3-Chloro-4-[5,7-dihydroxy-8-(2-hydroxymethyl-1-methyl-pyrrolidin-3-yl)-4-oxo-4H-chromen-2-yl]-benzonitrile] the figure was 237 to 239 °C.
In turn, `CN1CC[C@@H](c2c(O)cc(O)c3c(=O)cc(-c4ccc(O)cc4Cl)oc23)[C@@H]1CO` (racemic) [Example 104, (±)-trans-2-(2-Chloro-4-hydroxy-phenyl)-5,7-dihydroxy-8-(2-hydroxymethyl-1-methyl-pyrrolidin-3-yl)-chromen-4-one] came in with a melting point greater than 300 °C.
Turning to `COc1cc(OC)c2c(=O)cc(-c3ccc(C#N)cc3)oc2c1[C@@H]1CCN(C)[C@H]1CO` (racemic) [Example 81, (±)-trans-4-[8-(2-Hydroxymethyl-1-methyl-pyrrolidin-3-yl)-5,7-dimethoxy-4-oxo-4H-chromen-2-yl]-benzonitrile], the melting point lay in the range of 214 to 216 °C.
The compound `CN1CC[C@@H](c2c(O)cc(O)c3c(=O)cc(-c4ccccc4O)oc23)[C@@H]1CO` (racemic) [Example 96, (±)-trans-5,7-Dihydroxy-8-(2-hydroxymethyl-1-methyl-pyrrolidin-3-yl)-2-(2-hydroxy-phenyl)-chromen-4-one] had a melting point of 212 to 213 °C.
With `CN1CC[C@@H](c2c(O)cc(O)c3c(=O)cc(-c4ccc(Br)cc4Cl)oc23)[C@@H]1CO` [Example 100, (+)-trans-2-(4-Bromo-2-chloro-phenyl)-5,7-dihydroxy-8-(2-hydroxymethyl-1-methyl-pyrrolidin-3-yl)-chromen-4-one], the melting point lay in the range of 155 to 156 °C.
As to `CNc1ccc(Cl)c(-c2cc(=O)c3c(O)cc(O)c([C@@H]4CCN(C)[C@H]4CO)c3o2)c1` (racemic) [Example 102, (±)-trans-2-(2-Chloro-5-methylamino-phenyl)-5,7-dihydroxy-8-(2-hydroxymethyl-1-methyl-pyrrolidin-3-yl)-chromen-4-one], the melting point was 208 to 210 °C.
On to `CN1CC[C@@H](c2c(O)cc(O)c3c(=O)cc(-c4ccc(N)cc4)oc23)[C@@H]1CO` [Example 94, (+)-trans-2-(4-Amino-phenyl)-5,7-dihydroxy-8-(2-hydroxymethyl-1-methyl-pyrrolidin-3-yl)-chromen-4-one], for which the melting point lay within 172 to 174 °C.
Turning to `CN1CC[C@@H](c2c(O)cc(O)c3c(=O)cc(-c4ccccc4F)oc23)[C@@H]1CO` [Example 21, (+)-trans-2-(2-Fluoro-phenyl)-5,7-dihydroxy-8-(2-hydroxymethyl-1-methyl-pyrrolidin-3-yl)-chromen-4-one], the melting point lay within 206 to 208 °C.
Then `CN1CC[C@@H](c2c(O)cc(O)c3c(=O)cc(-c4ccc(C(F)(F)F)cc4)oc23)[C@@H]1CO` (racemic) [Example 63, (±)-trans-5,7-Dihydroxy-8-(2-hydroxymethyl-1-methyl-pyrrolidin-3-yl)-2-(4-trifluoromethyl-phenyl)-chromen-4-one], with 238 °C; and `CN1CC[C@@H](c2c(O)cc(O)c3c(=O)cc(-c4ccccc4Cl)oc23)[C@@H]1Cn1ccnc1` (racemic) [Example 113, (±)-trans-2-(2-Chloro-phenyl)-5,7-dihydroxy-8-(2-imidazol-1-ylmethyl-1-methyl-pyrrolidin-3-yl)-chromen-4-one], with 249 to 250 °C; and `COc1cc(OC)c2c(=O)cc(-c3ccccc3Cl)oc2c1[C@@H]1CCN(C)[C@H]1CO` (racemic) [Example 7, (±)-trans-2-(2-Chloro-phenyl)-8-(2-hydroxymethyl-1-methyl-pyrrolidin-3-yl)-5,7-dimethoxy-chromen-4-one], with 95 to 97 °C.
`CN1CC[C@@H](c2c(O)cc(O)c3c(=O)cc(-c4ccc(C(F)(F)F)cc4)oc23)[C@@H]1CO` [Example 65, (+)-trans-5,7-Dihydroxy-8-(2-hydroxymethyl-1-methyl-pyrrolidin-3-yl)-2-(4-trifluoromethyl-phenyl)-chromen-4-one] showed a melting point of 235 to 237 °C.
Compound `CN1CC[C@@H](c2c(O)cc(O)c3c(=O)cc(-c4cccs4)oc23)[C@@H]1CO` [Example 68, (+)-trans-5,7-Dihydroxy-8-(2-hydroxymethyl-1-methyl-pyrrolidin-3-yl)-2-thiophen-2-yl-chromen-4-one] yielded a melting point of 218 to 220 °C.
With `CN1CC[C@@H](c2c(O)cc(O)c3c(=O)cc(-c4ccccc4Cl)oc23)[C@@H]1CN` (racemic) [Example 109, (±)-trans-8-(2-Aminomethyl-1-methyl-pyrrolidin-3-yl)-2-(2-chloro-phenyl)-5,7-dihydroxy-chromen-4-one], the melting point lay within 218 to 219 °C.
As for `CN1CC[C@@H](c2c(O)cc(O)c3c(=O)cc(-c4cccc(F)c4Cl)oc23)[C@@H]1CO` [Example 134, (+)-trans-2-(2-Chloro-3-fluoro-phenyl)-5,7-dihydroxy-8-(2-hydroxymethyl-1-methyl-pyrrolidin-3-yl)-chromen-4-one], the melting point fell in the range of 221 to 223 °C.
`CN1CC[C@@H](c2c(O)cc(O)c3c(=O)cc(-c4ccccc4)oc23)[C@@H]1CO` [Example 57, (+)-trans-5,7-Dihydroxy-8-(2-hydroxymethyl-1-methyl-pyrrolidin-3-yl)-2-phenyl-chromen-4-one] displayed a melting point of 212 to 215 °C.
